Read-outs that look alike come from different tables or passages of the source.
What was measured:
[1] = cited from earlier work
[2] = mice; preclinical model of anxiety; cited from earlier work
[3] = mice; preclinical model of anxiety; cited from earlier work; remark: listed apart in the source
[4] = target: recombinant human mGlu4 expressed in HEK293 cells (Homo sapiens (Human), UniProt Q14833); assay: Ca2+ mobilization in vitro assay, mGlu4 PAM; type: cell-based; conditions: for EC50: HEK293 cells, human mGlu4, with EC20 of L-AP4; for Eff. (%): maximal response in % of maximal stimulatory effect of saturating L-AP4
Sequence of recombinant human mGlu4 expressed in HEK293 cells (Q14833 33-912): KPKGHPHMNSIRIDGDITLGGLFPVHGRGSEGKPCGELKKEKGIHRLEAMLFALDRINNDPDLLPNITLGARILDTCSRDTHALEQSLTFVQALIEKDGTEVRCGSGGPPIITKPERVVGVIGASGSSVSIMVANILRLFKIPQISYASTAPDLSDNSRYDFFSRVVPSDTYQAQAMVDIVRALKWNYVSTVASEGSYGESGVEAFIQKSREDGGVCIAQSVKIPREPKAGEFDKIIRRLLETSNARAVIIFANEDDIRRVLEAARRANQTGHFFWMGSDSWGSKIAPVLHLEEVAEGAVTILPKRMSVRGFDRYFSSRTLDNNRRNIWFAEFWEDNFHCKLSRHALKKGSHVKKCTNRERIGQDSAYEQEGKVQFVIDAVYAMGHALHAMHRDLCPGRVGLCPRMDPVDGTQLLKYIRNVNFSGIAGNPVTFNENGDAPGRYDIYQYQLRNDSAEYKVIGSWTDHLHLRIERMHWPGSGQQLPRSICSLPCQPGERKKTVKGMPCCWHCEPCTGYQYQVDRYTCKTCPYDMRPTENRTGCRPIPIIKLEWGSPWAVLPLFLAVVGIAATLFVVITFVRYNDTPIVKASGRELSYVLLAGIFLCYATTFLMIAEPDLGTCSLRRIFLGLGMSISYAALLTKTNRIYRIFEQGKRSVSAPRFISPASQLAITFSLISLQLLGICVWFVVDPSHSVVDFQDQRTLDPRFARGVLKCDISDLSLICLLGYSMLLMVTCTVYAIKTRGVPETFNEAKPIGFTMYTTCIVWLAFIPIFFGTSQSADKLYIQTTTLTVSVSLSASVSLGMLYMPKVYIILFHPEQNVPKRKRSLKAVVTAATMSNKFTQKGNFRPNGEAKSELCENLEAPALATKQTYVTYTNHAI
Method: Determination of EC50 values using a Ca2+ mobilization in vitro assay on recombinant human mGlu4 expressed in HEK293 cells:
A monoclonal HEK-293 cell line stably transfected with a cDNA encoding for the human mGlu4 receptor was generated; for the work with mGlu4 Positive Allosteric Modulators (PAMs), a cell line with low receptor expression levels and low constitutive receptor activity was selected to allow the differentiation of agonistic versus PAM activity. Cells were cultured according to standard protocols (Freshney, 2000) in Dulbecco's Modified Eagle Medium with high glucose supplemented with 1 mM glutamine, 10% (vol/vol) heat-inactivated bovine calf serum, Penicillin/Streptomycin, 50 μg/ml hygromycin and 15 μg/ml blasticidin (all cell culture reagents and antibiotics from Invitrogen, Basel, Switzerland). About 24 hrs before an experiment, 5×10^4 cells/well were seeded in poly-D-lysine coated, black/clear-bottomed 96-well plates. The cells were loaded with 2.5 μM Fluo-4AM in loading buffer (1×HBSS, 20 mM HEPES) for 1 hr at 37° C. and washed five times with loading buffer. The cells were transferred into a Functional Drug Screening System 7000 (Hamamatsu, Paris, France), and 11 half logarithmic serial dilutions of test compound at 37° C. were added and the cells were incubated for 10-30 min. with on-line recording of fluorescence. […] Graphs were plotted with the % maximal stimulatory using XLfit, a curve fitting program that iteratively plots the data using Levenburg Marquardt algorithm. The single site competition analysis equation used was y=A+((B-A)/(1+((x/C)D))), where y is the % maximal stimulatory effect, A is the minimum y, B is the maximum y, C is the EC50, x is the log 10 of the concentration of the competing compound and D is the slope of the curve (the Hill Coefficient).
FIG. 1: Illustration of the experimental outline for mGlu4 PAM Ca2+ mobilization screening assay and the determination of EC50 and % Emax values.

[5] = mice treated with MPTP; cited from earlier work

Cc1ccnc(Nc2nc(-c3cn[nH]c3)c(C)s2)n1 [ADX88178]
profile in rat EPM test ([1]; rat, after oral dosing): anxiolytic-like profile
activity in EPM ([1]; rats, preclinical model of anxiety): active
activity in EPM [2]: active
activity in marble burying test [3]: active

CCn1ncc2c1CCC[C@]21CC(=O)N(c2c(F)cc(C#Cc3ccccc3)cc2F)C(=O)N1C [Example 2, (4S)-3′-[2,6-Difluoro-4-(2-phenylethynyl)phenyl]-1-ethyl-1′-methyl-spiro[6,7-dihydro-5H-indazole-4,6′-hexahydropyrimidine]-2′,4′-dione]
EC50 [4]: 85 nM
Eff. (%) [4]: 136%

CCn1cc2c(n1)CCC[C@]21CC(=O)N(c2c(F)cc(C#Cc3ccccc3)cc2F)C(=O)N1C [Example 1, (4S)-3′-[2,6-Difluoro-4-(2-phenylethynyl)phenyl]-2-ethyl-1′-methyl-spiro[6,7-dihydro-5H-indazole-4,6′-hexahydropyrimidine]-2′,4′-dione]
EC50 [4]: 77 nM
Eff. (%) [4]: 132%

O=C(Nc1ccccc1)C12CC1/C(=N\O)c1ccccc1O2 (single isomer, unassigned; (-)) [(−)-PHCCC]
nigrostriatal degeneration [5]: reduced nigrostriatal degeneration

Source: patent publication US11242349B2, “Ethynyl derivatives” (Hoffmann-La Roche Inc., priority 2016, dated 2022)
